Usually IC50 stands for the concentration at which inhibition is half-maximal.

Structures are written as SMILES.

Data on 25 compounds can be found in US7151105B2, “Inhibitors of Hepatitis C virus RNA-dependent RNA polymerase, and compositions and treatments using the same” (Agouron Pharmaceuticals, Inc., priority 2004, dated 2006).

The target in this test is T1, Recombinant HCV polymerase (Hepatitis C virus genotype 1b, UniProt P26663).
T1 construct: Recombinant HCV polymerase was tested for its ability to perform primer/template-directed transcription
T1 sequence (P26663 2420-3010): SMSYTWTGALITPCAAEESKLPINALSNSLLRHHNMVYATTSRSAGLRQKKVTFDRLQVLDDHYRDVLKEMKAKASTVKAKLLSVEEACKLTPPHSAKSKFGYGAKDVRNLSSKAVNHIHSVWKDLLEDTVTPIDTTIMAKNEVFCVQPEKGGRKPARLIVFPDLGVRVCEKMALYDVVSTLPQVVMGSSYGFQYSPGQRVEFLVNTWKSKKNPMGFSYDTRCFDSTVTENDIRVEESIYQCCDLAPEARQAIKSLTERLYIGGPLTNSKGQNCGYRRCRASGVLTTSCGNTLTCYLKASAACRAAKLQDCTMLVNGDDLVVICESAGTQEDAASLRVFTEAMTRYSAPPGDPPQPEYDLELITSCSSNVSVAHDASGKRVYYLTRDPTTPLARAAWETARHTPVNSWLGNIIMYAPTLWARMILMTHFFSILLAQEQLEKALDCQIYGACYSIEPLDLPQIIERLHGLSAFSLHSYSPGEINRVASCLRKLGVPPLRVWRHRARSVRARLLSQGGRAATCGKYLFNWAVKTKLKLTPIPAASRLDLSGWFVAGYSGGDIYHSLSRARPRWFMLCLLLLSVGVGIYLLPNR
Description: biochemical. Particulars: inhibition of polymerase-directed transcription; 30 min at 30° C; 30 nM enzyme; cpm data in triplicate. In short, it runs like this: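 Primer/template-directed RNA synthesis by 2.5 pmol HCV polymerase on poly(rC)300/biotin-dG12 with 1 μM GTP plus α-32P-GTP, in pH 7.2 Tris buffer with 10 mM MgCl2, for 30 min at 30 °C. Products were filter-captured and counted, with 1% DMSO final. IC50 was fitted from triplicate cpm; percent inhibition was reported where IC50 was impractical.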
For `CCc1cc(CCC2(C3CCCC3)CC(O)=C(Cc3nc4nc(C)cc(C)n4n3)C(=O)O2)ccc1COC` (stereo not shown) [A(120), 6-Cyclopentyl-3-[(5,7-dimethyl[1,2,4]triazolo[1,5-a]pyrimidin-2-yl)methyl]-6-{2-[3ethyl-4-(methoxymethyl)phenyl]ethyl}-4-hydroxy-5,6dihydro-2H-pyran-2-one], the IC50 stood at 7 nM. Turning to `O=C1CC(=O)OC(CCc2ccc(C(=O)O)c(F)c2)(C2CCCC2)C1` (stereo not shown) [B(6), 4-[2-(2-Cyclopentyl-4,6-dioxotetrahydro-2H-pyran-2-yl)ethyl]-2-fluorobenzoic acid], the IC50 stood at 12000 nM. As to `CS(=O)(=O)c1ccc(CCC2(C3CCCC3)CC(=O)CC(=O)O2)cc1Cl` (stereo not shown) [B(2), 6-{2-[3-Chloro-4-(methylsulfonyl)phenyl]ethyl}-6-cyclopentyldihydro-2H-pyran-2,4(3H)-dione], the IC50 came to 48000 nM. On to `CCc1cc(CCC2(C3CCCC3)CC(O)=C(Cc3nc4nc(C)cc(C)n4n3)C(=O)O2)ccc1Oc1nccs1` (stereo not shown) [A(122), 6-Cyclopentyl-3-[(5,7-dimethyl[1,2,4]triazolo[1,5-a]pyrimidin-2-yl)methyl]-6-{2-[3ethyl-4-(1,3thiazol-2-yloxy)phenyl]ethyl}-4hydroxy-5,6dihydro-2H-pyran-2-one], for which the IC50 amounted to 4 nM. For `CC(C)(O)c1ccc(CCC2(C3CCCC3)CC(O)=C(Cc3nc4ncccn4n3)C(=O)O2)cc1Cl` (stereo not shown) [B(35), 6-{2-[3-Chloro-4-(1-hydroxy-1-methylethyl)phenyl]ethyl}-6-cyclopentyl-4-hydroxy-3-([1,2,4]triazolo[1,5-a]pyrimidin-2-ylmethyl)-5,6-dihydro-2H-pyran-2-one], the IC50 came to 10 nM. For the compound `Cc1cc(C)n2nc(CC3=C(O)CC(CCc4ccc(C(C)(C)C#N)c(C(F)(F)F)c4)(C4CCCC4)OC3=O)nc2n1` (racemic) [Example B(28), 2-[4-(2-{2-cyclopentyl-5-[(5,7-dimethyl[1,2,4]triazolo[1,5-a]pyrimidin-2-yl)methyl]-4-hydroxy-6-oxo-3,6-dihydro-2H-pyran-2-yl}ethyl)-2-(trifluoromethyl)phenyl]-2-methylpropanenitrile], the IC50 is 5 nM. With `CC(C)(C#N)c1ncc(CCC2(C3CCCC3)CC(=O)CC(=O)O2)cc1Cl` (stereo not shown) [B(29), 2-{3-Chloro-5-[2-(2-cyclopentyl-4,6-dioxotetrahydro-2H-pyran-2-yl)ethyl]pyridin-2-yl}-2-methylpropanenitrile], the IC50 was 5200 nM. In the case of `CCc1cc(CCC2(C3CCCC3)CC(=O)CC(=O)O2)ccc1-c1ncco1` (stereo not shown) [A(135), 6-Cyclopentyl-6-{2-[3-ethyl-4-(1,3-oxazol-2-yl)phenyl]ethyl}dihydro-2H-pyran-2,4(3H)-dione] it was 210 nM; in that of `CCCOc1cc(O)c(CC(F)(F)F)cc1CCC1(C2CCCC2)CC(O)=C(Cc2nc3nc(C)cc(C)n3n2)C(=O)O1` (stereo not shown) [A(77), 6-Cyclopentyl-3-[(5,7-dimethyl[1,2,4]triazolo[1,5-a]pyrimidin-2-yl)methyl]-4-hydroxy-6-{2-[4-hydroxy-2-propoxy-5-(2,2,2-trifluoroethyl)phenyl]ethyl}-5,6-dihydro-2H-pyran-2-one], 5 nM. For the compound `Cc1cnc2nc(CC3=C(O)CC(CCc4ccc(C(C)(C)C#N)c(C)c4)(C4CCCC4)OC3=O)nn2c1` (stereo not shown) [A(78), 2-[4-(2-{2-Cyclopentyl-4-hydroxy-5-[(6-methyl[1,2,4]triazolo[1,5-a]pyrimidin-2-yl)methyl]-6-oxo-3,6-dihydro-2H-pyran-2-yl}ethyl)-2-methylphenyl]-2-methylpropanenitrile], the IC50 was found to be 12 nM. In the case of `Cc1cc(C)n2nc(N(C)C3C(=O)CC(CCc4ccc(C(C)(C)C#N)c(Cl)c4)(C4CCCC4)OC3=O)nc2n1` (stereo not shown) [B(26), 2-[2-Chloro-4-(2-{2-cyclopentyl-5-[(5,7-dimethyl[1,2,4]triazolo[1,5-a]pyrimidin-2-yl)(methyl)amino]-4,6-dioxotetrahydro-2H-pyran-2-yl}ethyl)phenyl]-2-methylpropanenitrile], the IC50 turned out to be 18000 nM. The value for `CCc1cc(CCC2(C3CCCC3)CC(O)=C(Cc3nc4nc(C)cc(C)n4n3)C(=O)O2)ccc1Cn1cccn1` (stereo not shown) [A(112), 6-Cyclopentyl-3-[(5,7-dimethyl[1,2,4]triazolo[1,5-a]pyrimidin-2-yl)methyl]-6-{2-[3-ethyl-4-(1H-pyrazol-1-ylmethyl)phenyl]ethyl}-4-hydroxy-5,6-dihydro-2H-pyran-2-one] was 7 nM; that for `Cc1cc(C)n2nc(CC3=C(O)CC(CCc4cc(C)c(O)c(CC(F)(F)F)c4)(C4CCCC4)OC3=O)nc2n1` (stereo not shown) [A(76), 6-Cyclopentyl-3-[(5,7-dimethyl[1,2,4]triazolo[1,5-a]pyrimidin-2-yl)methyl]-4-hydroxy-6-{2-[4-hydroxy-3-methyl-5-(2,2,2-trifluoroethyl)phenyl]ethyl}-5,6-dihydro-2H-pyran-2-one] was 5 nM; that for `COc1cc(O)c(C(C)=O)cc1CCC1(C2CCCC2)CC(O)=C(Cc2nc3nc(C)cc(C)n3n2)C(=O)O1` (stereo not shown) [A(98), 6-[2-(5-Acetyl-4-hydroxy-2-methoxyphenyl)ethyl]-cyclopentyl-3-[(5,7-dimethyl[1,2,4]triazolo[1,5-a]pyrimidin-2-yl)methyl]-4-hydroxy-5,6-dihydro-2H-pyran-2-one] was 11 nM. The value for `Cc1cc(C)n2nc(CC3=C(O)CC(CCc4cnc(C(C)(C)C#N)c(Cl)c4)(C4CCCC4)OC3=O)nc2n1` (racemic) [Example B(39), 2-[3-chloro-5-(2-{2-cyclopentyl-5-[(5,7-dimethyl[1,2,4]triazolo[1,5-a]pyrimidin-2-yl)methyl]-4-hydroxy-6-oxo-3,6-dihydro-2H-pyran-2-yl}ethyl)pyridin-2-yl]-2-methylpropanenitrile] was 12 nM; that for `CCc1cc(CCC2(C3CCCC3)CC(O)=C(Cc3nc4nc(C)cc(C)n4n3)C(=O)O2)ccc1CN(C)C` (racemic) [A(119), 6-cyclopentyl-6-(2-{4-[(dimethylamino)methyl]-3-ethylphenyl}ethyl)-3-[(5,7-dimethyl[1,2,4]triazolo[1,5-a]pyrimidin-2-yl)methyl]-4-hydroxy-5,6-dihydro-2H-pyran-2-one] was 10 nM; that for `CCn1nc(CC2=C(O)CC(CCc3ccc(C(C)(C)C#N)c(F)c3)(C3CCCC3)OC2=O)nc1C` (stereo not shown) [Example B(50), 2-[4-(2-{2-Cyclopentyl-5-[(1-ethyl-5-methyl-1H-1,2,4-triazol-3-yl)methyl]-4-hydroxy-6-oxo-3,6dihydro-2H-pyran-2-yl}ethyl)-2-fluorophenyl]-2-methylpropanenitrile] was 43 nM. For `CCc1cc(CCC2(C3CCCC3)CC(O)=C(Cc3nc4nc(C)cc(C)n4n3)C(=O)O2)ccc1C(=O)OC` (stereo not shown) [A(118), Methyl 4-(2-{2-cyclopentyl-5-[(5,7-dimethyl[1,2,4]triazolo[1,5a]pyrimidin-2-yl)methyl]-4-hydroxy-6oxo-3,6-dihydro-2H-pyran-2-yl}ethyl)-2-ethylbenzoate], the IC50 was 7 nM. As for `CCCOc1cnc(CC)cc1CCC1(C2CCCC2)CC(O)=C(Cc2nc3nc(C)cc(C)n3n2)C(=O)O1` (stereo not shown) [A(42), 6-Cyclopentyl-3-[(5,7-dimethyl[1,2,4]triazolo[1,5-a]pyrimidin-2-yl)methyl]-6-[2-(2-ethyl-5propoxypyridin-4-yl)ethyl]-4-hydroxy-5,6-dihydro-2H-pyran-2-one], the IC50 came out at 4 nM. The value for `CCOc1cnc(CC)cc1CCC1(C2CCCC2)CC(O)=C(Cc2nc3nc(C)cc(C)n3n2)C(=O)O1` (single isomer, unassigned) [A(51), 6-Cyclopentyl-3-[(5,7-dimethyl[1,2,4]triazolo[1,5-a]pyrimidin-2-yl)methyl]-6-[2-(5-ethoxy-2-ethylpyridin-4-yl)ethyl]-4-hydroxy-5,6-dihydro-2H-pyran-2-one] was 3 nM; that for `CCn1cc(CC2=C(O)CC(CCc3ccc(C(C)(C)C#N)c(F)c3)(C3CCCC3)OC2=O)cn1` (stereo not shown) [A(85), 2-[4-(2-{2-Cyclopentyl-5-[(1-ethyl-1H-pyrazol-4-yl)methyl]-4-hydroxy-6-oxo-3,6-dihydro-2H-pyran-2-yl}ethyl)-2-fluorophenyl]-2-methylpropanenitrile] was 83 nM. In the case of `Cc1cc(C)n2nc(CC3=C(O)CC(CCc4ccc(O)c(CC(F)(F)F)c4)(C4CCCC4)OC3=O)nc2n1` (single isomer, unassigned) [A(75), 6-cyclopentyl-3-[(5,7-dimethyl[1,2,4]triazolo[1,5-a]pyrimidin-2-yl)methyl]-4-hydroxy-6-{2-[4-hydroxy-3-(2,2,2-trifluoroethyl)phenyl]ethyl}-5,6-dihydro-2H-pyran-2-one], the IC50 stood at 5 nM.

On to `CCc1cc(CCC2(C3CCCC3)CC(O)=C(Cc3nc4nc(C)cc(C)n4n3)C(=O)O2)c(OC)cc1OC` (stereo not shown) [A(24), 6-Cyclopentyl-3-[(5,7-dimethyl[1,2,4]triazolo[1,5-a]pyrimidin-2-yl)methyl]-6-[2-(5-ethyl-2,4-dimethoxyphenyl)ethyl]-4-hydroxy-5,6-dihydro-2H-pyran-2-one], for which the IC50 was determined as 14 nM. In the case of `CCc1cc(CCC2(C3CCCC3)CC(O)=C(Cc3nc4nc(C)cc(C)n4n3)C(=O)O2)ccc1CNCC1CC1` (stereo not shown) [A(127), 6-Cyclopentyl-6-[2-(4-{[(cyclopropylmethyl)amino]methyl}-3-ethylphenyl)ethyl]-3-[(5,7-dimethyl[1,2,4]triazolo[1,5-a]pyrimidin-2-yl)methyl]-4-hydroxy-5,6-dihydro-2H-pyran-2-one] it was 130 nM; in that of `CCc1cc(CCC2(C3CCCC3)CC(O)=C(Cc3nc4nc(C)cc(C)n4n3)C(=O)O2)ccc1OCCN(C)C(=O)OC(C)(C)C` (stereo not shown) [A(69), tert-Butyl 2-[4-(2-{2-cyclopentyl-5-[(5,7-dimethyl[1,2,4]triazolo[1,5-a]pyrimidin-2-yl)methyl]-4-hydroxy-6-oxo-3,6-dihydro-2H-pyran-2-yl}ethyl)2-ethylphenoxy]ethyl(methyl)carbamate], 15 nM.
